Measured values: patent publication US10544143B2, “4-azaindole compounds” (BRISTOL-MYERS SQUIBB COMPANY, priority 2017, dated 2020)

Experiments:
[1] = molecular target: human TLR8 (Homo sapiens (Human), UniProt Q9NR97); test: TLR8 inhibition reporter assay (HEK-Blue SEAP); details: read-out: TLR8 IC50; HEK-Blue cells overexpressing human TLR8, R848 15.9 μM stimulation, SEAP reporter;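 note: SEAP driven by IFN-β minimal promoter carrying NF-κB and AP-1 sites, compounds dosed 0.05 nM to 50 µM for 22 h, inhibition scaled between agonist-plus-DMSO and reference-inhibitor wells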
[2] = molecular target: human TLR7 (Homo sapiens (Human), UniProt Q9NYK1); test: TLR7 inhibition reporter assay (HEK-Blue SEAP); format: cell-based; details: HEK-Blue cells overexpressing human TLR7, gardiquimod 7.5 μM stimulation, SEAP reporter
[3] = molecular target: human TLR9 (Homo sapiens (Human), UniProt Q9NR96); test: TLR9 inhibition reporter assay (HEK-Blue SEAP); details: read-out: TLR9 IC50; HEK-Blue cells overexpressing human TLR9, ODN2006 5 nM stimulation, SEAP reporter;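 note: SEAP driven by an IFN-β minimal promoter with NF-κB and AP-1 sites, read after 22 h, compounds dosed 0.05 nM–50 µM, inhibition scaled between agonist plus DMSO and reference-inhibitor wells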
Sequence of human TLR9 (Q9NR96 26-1032): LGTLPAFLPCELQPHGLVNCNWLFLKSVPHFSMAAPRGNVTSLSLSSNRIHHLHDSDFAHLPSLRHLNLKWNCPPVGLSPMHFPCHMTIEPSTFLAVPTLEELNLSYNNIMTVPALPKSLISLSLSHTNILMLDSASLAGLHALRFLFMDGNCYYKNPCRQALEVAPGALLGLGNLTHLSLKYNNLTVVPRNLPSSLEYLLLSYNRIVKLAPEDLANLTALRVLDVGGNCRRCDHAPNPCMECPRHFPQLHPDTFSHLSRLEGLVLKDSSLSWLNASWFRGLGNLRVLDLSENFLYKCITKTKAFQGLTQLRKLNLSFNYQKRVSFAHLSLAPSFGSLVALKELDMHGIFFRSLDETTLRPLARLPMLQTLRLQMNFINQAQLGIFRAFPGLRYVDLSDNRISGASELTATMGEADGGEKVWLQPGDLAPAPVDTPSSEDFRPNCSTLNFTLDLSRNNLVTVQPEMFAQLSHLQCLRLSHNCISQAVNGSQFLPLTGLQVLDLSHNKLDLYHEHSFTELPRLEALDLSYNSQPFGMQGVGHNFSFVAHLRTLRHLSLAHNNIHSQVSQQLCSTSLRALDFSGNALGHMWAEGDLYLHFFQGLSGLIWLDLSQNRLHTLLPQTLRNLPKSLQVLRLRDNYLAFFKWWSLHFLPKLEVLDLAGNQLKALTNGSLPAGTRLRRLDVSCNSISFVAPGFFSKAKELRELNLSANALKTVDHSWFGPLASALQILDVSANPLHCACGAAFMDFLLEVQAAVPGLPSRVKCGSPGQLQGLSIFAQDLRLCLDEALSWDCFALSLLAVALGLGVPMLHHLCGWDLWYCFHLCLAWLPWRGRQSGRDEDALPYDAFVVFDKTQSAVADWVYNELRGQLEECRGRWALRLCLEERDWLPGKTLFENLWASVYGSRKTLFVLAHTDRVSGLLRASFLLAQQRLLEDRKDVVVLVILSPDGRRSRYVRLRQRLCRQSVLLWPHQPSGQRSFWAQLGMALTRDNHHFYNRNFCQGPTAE

Sequence of human TLR8 (Q9NR97 27-1041): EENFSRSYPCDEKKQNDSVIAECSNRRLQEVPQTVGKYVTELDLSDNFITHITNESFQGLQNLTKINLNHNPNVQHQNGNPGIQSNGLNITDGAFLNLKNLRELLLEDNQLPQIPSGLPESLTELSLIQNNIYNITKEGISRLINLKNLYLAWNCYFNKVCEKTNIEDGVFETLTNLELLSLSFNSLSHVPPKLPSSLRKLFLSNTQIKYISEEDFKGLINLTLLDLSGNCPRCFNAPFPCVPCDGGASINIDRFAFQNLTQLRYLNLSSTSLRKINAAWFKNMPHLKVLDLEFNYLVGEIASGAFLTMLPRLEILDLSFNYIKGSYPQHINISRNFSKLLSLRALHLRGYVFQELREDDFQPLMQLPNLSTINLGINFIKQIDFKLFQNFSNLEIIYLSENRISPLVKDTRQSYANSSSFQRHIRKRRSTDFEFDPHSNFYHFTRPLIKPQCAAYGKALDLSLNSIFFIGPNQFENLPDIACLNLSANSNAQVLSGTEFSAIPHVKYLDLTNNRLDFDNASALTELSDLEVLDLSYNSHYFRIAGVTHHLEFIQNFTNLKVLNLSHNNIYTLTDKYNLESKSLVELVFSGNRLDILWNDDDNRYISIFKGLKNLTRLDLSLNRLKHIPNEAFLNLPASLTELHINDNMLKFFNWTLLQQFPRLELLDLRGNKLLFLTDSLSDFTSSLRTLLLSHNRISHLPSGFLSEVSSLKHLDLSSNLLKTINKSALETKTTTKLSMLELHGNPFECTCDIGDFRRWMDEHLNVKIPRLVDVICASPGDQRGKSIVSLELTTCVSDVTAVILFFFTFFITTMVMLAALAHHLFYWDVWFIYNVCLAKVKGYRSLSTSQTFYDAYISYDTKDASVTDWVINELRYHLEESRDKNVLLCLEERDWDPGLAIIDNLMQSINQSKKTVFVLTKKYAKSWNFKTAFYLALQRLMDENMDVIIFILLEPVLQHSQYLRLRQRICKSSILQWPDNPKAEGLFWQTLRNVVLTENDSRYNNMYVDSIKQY
Sequence of human TLR7 (Q9NYK1 27-1049): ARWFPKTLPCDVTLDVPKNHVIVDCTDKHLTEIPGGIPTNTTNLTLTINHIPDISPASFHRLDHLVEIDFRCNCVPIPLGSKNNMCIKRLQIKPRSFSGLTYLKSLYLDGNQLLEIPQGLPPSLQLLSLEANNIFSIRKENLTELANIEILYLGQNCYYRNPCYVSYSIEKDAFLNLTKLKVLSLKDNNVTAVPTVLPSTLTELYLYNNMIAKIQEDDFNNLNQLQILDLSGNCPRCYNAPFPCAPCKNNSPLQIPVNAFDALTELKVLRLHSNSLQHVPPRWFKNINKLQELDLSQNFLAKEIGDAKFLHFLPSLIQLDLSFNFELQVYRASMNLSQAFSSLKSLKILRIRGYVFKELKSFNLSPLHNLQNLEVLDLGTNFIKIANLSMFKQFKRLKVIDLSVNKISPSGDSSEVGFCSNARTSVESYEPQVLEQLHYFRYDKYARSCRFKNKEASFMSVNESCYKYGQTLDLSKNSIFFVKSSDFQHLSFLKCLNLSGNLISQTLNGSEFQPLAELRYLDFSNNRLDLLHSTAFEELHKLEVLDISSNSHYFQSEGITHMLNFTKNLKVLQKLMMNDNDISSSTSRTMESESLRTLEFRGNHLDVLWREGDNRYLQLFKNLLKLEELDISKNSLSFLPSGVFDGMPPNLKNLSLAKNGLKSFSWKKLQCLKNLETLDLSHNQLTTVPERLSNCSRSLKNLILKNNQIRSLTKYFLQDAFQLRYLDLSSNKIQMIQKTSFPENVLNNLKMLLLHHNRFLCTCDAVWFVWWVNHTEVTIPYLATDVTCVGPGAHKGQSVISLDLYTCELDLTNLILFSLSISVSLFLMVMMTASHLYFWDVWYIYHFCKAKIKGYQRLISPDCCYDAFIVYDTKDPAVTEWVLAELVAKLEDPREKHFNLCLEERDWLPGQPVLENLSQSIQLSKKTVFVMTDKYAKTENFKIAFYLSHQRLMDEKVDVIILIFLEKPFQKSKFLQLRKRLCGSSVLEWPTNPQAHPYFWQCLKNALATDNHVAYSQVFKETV

Row | IC50 [1] [nM] | IC50 [2] [nM] | IC50 [3] [nM] | Compound
1 | 1.2 | 8.4 | > 50000 | Cc1c(-c2[nH]c3ccc(N4CCN(CC(=O)N(C)C)CC4)nc3c2C(C)C)cn2ncnc2c1C [Example 144]
2 | 0.49 | 1.5 | 8200 | Cc1c(-c2[nH]c3ccc(N4CCN(C(=O)CN5CCCC5)CC4)nc3c2C(C)C)cn2ncnc2c1C [Example 145]
3 | 2.5 | 5.6 | 12900 | Cc1c(-c2[nH]c3ccc(N4CCN(C(=O)CN5CCC5)CC4)nc3c2C(C)C)cn2ncnc2c1C [Example 146]
4 | 0.26 | 5 | 18700 | Cc1c(-c2[nH]c3ccc(N4CCN(CCCS(C)(=O)=O)CC4)nc3c2C(C)C)cn2ncnc2c1C [Example 147]
5 | 16 | 97 | > 50000 | Cc1c(-c2[nH]c3ccc(N4CCN(CCC#N)CC4)nc3c2C(C)C)cn2ncnc2c1C [Example 148]
6 | 0.4 | 9.3 | 19500 | Cc1c(-c2[nH]c3ccc(N4CCN(CCC(N)=O)CC4)nc3c2C(C)C)cn2ncnc2c1C [Example 149]
7 | 2.7 | 12 | > 50000 | Cc1c(-c2[nH]c3ccc(N4CCNC(=O)C4)nc3c2C(C)C)cn2ncnc2c1C [Example 150]
8 | 1.2 | 1.2 | 12000 | Cc1c(-c2[nH]c3ccc(N4CCN(S(=O)(=O)CCN(C)C)CC4)nc3c2C(C)C)cn2ncnc2c1C [Example 151]
9 | 600 | 1920 | > 50000 | Cc1c(-c2[nH]c3ccc(N4CCN(CCN5CCOCC5)C(=O)C4)nc3c2C(C)C)cn2ncnc2c1C [Example 154]
10 | 56 | 401 | > 50000 | Cc1c(-c2[nH]c3ccc(N4CCN(CCN5CCOCC5)C(=O)C4)nc3c2C(C)C)cn2ncnc2c1C [Example 155]
11 | 0.79 | 1.5 | 6750 | Cc1c(-c2[nH]c3ccc(N4CCN(C(=O)CNC5CCC5)CC4)nc3c2C(C)C)cn2ncnc2c1C [Example 156]
12 | 1.2 | 2.2 | 8840 | Cc1c(-c2[nH]c3ccc(N4CCN(C(=O)CNC(C)C)CC4)nc3c2C(C)C)cn2ncnc2c1C [Example 157]
13 | 0.96 | 2.3 | 8260 | Cc1c(-c2[nH]c3ccc(N4CCN(C(=O)CNCCO)CC4)nc3c2C(C)C)cn2ncnc2c1C [Example 158]
14 | 1.2 | 1.8 | 10600 | Cc1c(-c2[nH]c3ccc(N4CCN(C(=O)CN5CCC(O)CC5)CC4)nc3c2C(C)C)cn2ncnc2c1C [Example 160]
15 | 0.92 | 1.4 | 5920 | Cc1c(-c2[nH]c3ccc(N4CCN(C(=O)CNCC5CC5)CC4)nc3c2C(C)C)cn2ncnc2c1C [Example 161]
16 | 2.8 | 2.8 | 23100 | Cc1c(-c2[nH]c3ccc(N4CCCNCC4)nc3c2C(C)C)cn2ncnc2c1C [Example 162]
17 | 5 | 9.7 | 24800 | Cc1c(-c2[nH]c3ccc(N4CCCN(CC(=O)N(C)C)CC4)nc3c2C(C)C)cn2ncnc2c1C [Example 163]
18 | 0.68 | 11 | 22700 | Cc1c(-c2[nH]c3ccc(N4CCC(NCC5(S(C)(=O)=O)CC5)C4)nc3c2C(C)C)cn2ncnc2c1C (stereo not drawn) [Example 165]

Row | IC50 [1] [nM] | IC50 [2] [nM] | IC50 [3] [nM] | Compound
19 | 18 | 1.5 | 2190 | COc1cc(-c2[nH]c3ccc(C4CCC(N(C)CCC#N)CC4)nc3c2C(C)C)cn2ncnc12 (stereo not drawn) [Example 166]
20 | 1.7 | 0.43 | 156 | COc1cc(-c2[nH]c3ccc(C4CCC(NC(C)C)CC4)nc3c2C(C)C)cn2ncnc12 (stereo not drawn) [Example 167]
21 | 3.4 | 0.89 | 658 | COc1cc(-c2[nH]c3ccc(C4CCC(N(C)C(C)C)CC4)nc3c2C(C)C)cn2ncnc12 (stereo not drawn) [Example 168]
22 | 21 | 3.1 | 1220 | COc1cc(-c2[nH]c3ccc(C4CCC(N(C)CCO)CC4)nc3c2C(C)C)cn2ncnc12 (stereo not drawn) [Example 169]
23 | 17 | 2 | 1410 | COc1cc(-c2[nH]c3ccc(C4CCC(N(C)C(C)C)CC4)nc3c2C(C)C)cn2ncnc12 (stereo not drawn) [Example 170]
24 | 1.8 | 0.45 | 560 | COc1cc(-c2[nH]c3ccc(C4CCC(N(C)C5CC5)CC4)nc3c2C(C)C)cn2ncnc12 (stereo not drawn) [Example 171]
25 | 13 | 1.9 | 1790 | COc1cc(-c2[nH]c3ccc(C4CCC(N(C)C5CC5)CC4)nc3c2C(C)C)cn2ncnc12 (stereo not drawn) [Example 172]
26 | 10 | 2 | 578 | COc1cc(-c2[nH]c3ccc(C4CCC(N5CCC[C@H]5CO)CC4)nc3c2C(C)C)cn2ncnc12 (stereo partly drawn) [Example 173]
27 | 37 | 4.3 | 1470 | COc1cc(-c2[nH]c3ccc(C4CCC(N5CCCC5)CC4)nc3c2C(C)C)cn2ncnc12 (stereo not drawn) [Example 174]
28 | 2 | 0.35 | 926 | COc1cc(-c2[nH]c3ccc(C4CCC(N(C)CCC#N)CC4)nc3c2C(C)C)cn2ncnc12 (stereo not drawn) [Example 175]
29 | 84 | 5.2 | 16000 | COc1cc(-c2[nH]c3ccc(C4CCC(=O)CC4)nc3c2C(C)C)cn2ncnc12 [Example 176]
30 | 2.5 | 0.28 | 148 | COc1cc(-c2[nH]c3ccc(C4CCC(N(C)C)CC4)nc3c2C(C)C)cn2ncnc12 (stereo not drawn) [Example 177]
31 | 1.8 | 0.48 | 895 | COc1cc(-c2[nH]c3ccc(C4CCC(NC5COC5)CC4)nc3c2C(C)C)cn2ncnc12 (stereo not drawn) [Example 178]
32 | 7 | 0.92 | 1740 | COc1cc(-c2[nH]c3ccc(C4CCC(N(C)C)CC4)nc3c2C(C)C)cn2ncnc12 (stereo not drawn) [Example 179]
33 | 11 | 2.8 | 1870 | COc1cc(-c2[nH]c3ccc(C4CCC(NC5COC5)CC4)nc3c2C(C)C)cn2ncnc12 (stereo not drawn) [Example 180]
34 | 13 | 1.7 | 561 | COc1cc(-c2[nH]c3ccc(C4CCC(NCC(=O)N(C)C)CC4)nc3c2C(C)C)cn2ncnc12 (stereo not drawn) [Example 181]
35 | 1.1 | 0.48 | 301 | CC(C)c1c(-c2cn(C)c3ncccc23)[nH]c2ccc(C3CCC(NCC(=O)N(C)C)CC3)nc12 (stereo not drawn) [Example 182]
36 | 15 | 5.6 | 1030 | CC(C)c1c(-c2cn(C)c3ncccc23)[nH]c2ccc(C3CCC(NCC(=O)N(C)C)CC3)nc12 (stereo not drawn) [Example 183]

Row | Compound | IC50 [1] [nM] | IC50 [2] [nM] | IC50 [3] [nM]
37 | Cc1c(-c2[nH]c3ccc(N4CCNC[C@@H]4C)nc3c2C(C)C)cn2ncnc2c1C [Example 152] | 1.6 | 2.7 | 5880
38 | Cc1c(-c2[nH]c3ccc(N4CCNC[C@H]4C)nc3c2C(C)C)cn2ncnc2c1C [Example 153] | 1.6 | 0.87 | 7150
39 | COCCNCC(=O)N1CCN(c2ccc3[nH]c(-c4cn5ncnc5c(C)c4C)c(C(C)C)c3n2)CC1 [Example 159] | 1 | 2.4 | 7740
